Several values for one entry are separate records, joined by “and”; a condition that tells them apart may be missing. Equal values may be shown once.
Tests used:
Experiment in all cases: Adapta Universal Kinase Assay, panel of 486 biochemical kinase assays
various kinases [1] = molecular target: various kinases (Homo sapiens, UniProt O60285); details: NUAK1 (ARK5)
various kinases [2] = molecular target: various kinases (Homo sapiens, UniProt P11802)
various kinases [3] = molecular target: various kinases (Homo sapiens, UniProt P48426); details: PIP4K2A
various kinases (Homo sapiens, UniProt P48426), sequence (P48426 whole entry): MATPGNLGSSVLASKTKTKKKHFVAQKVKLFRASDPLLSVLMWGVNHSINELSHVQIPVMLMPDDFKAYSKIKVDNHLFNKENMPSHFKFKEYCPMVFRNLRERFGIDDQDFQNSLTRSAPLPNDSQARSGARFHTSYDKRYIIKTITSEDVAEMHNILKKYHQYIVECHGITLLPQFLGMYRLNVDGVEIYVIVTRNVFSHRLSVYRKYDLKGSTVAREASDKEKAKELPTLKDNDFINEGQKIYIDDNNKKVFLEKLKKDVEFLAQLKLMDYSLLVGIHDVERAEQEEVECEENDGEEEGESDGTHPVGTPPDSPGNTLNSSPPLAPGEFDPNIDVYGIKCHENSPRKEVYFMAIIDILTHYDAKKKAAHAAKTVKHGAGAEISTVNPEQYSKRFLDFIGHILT

various kinases [4] = molecular target: various kinases (Homo sapiens, UniProt P53355); details: DAPK1
various kinases (Homo sapiens, UniProt P53355), sequence (P53355 whole entry): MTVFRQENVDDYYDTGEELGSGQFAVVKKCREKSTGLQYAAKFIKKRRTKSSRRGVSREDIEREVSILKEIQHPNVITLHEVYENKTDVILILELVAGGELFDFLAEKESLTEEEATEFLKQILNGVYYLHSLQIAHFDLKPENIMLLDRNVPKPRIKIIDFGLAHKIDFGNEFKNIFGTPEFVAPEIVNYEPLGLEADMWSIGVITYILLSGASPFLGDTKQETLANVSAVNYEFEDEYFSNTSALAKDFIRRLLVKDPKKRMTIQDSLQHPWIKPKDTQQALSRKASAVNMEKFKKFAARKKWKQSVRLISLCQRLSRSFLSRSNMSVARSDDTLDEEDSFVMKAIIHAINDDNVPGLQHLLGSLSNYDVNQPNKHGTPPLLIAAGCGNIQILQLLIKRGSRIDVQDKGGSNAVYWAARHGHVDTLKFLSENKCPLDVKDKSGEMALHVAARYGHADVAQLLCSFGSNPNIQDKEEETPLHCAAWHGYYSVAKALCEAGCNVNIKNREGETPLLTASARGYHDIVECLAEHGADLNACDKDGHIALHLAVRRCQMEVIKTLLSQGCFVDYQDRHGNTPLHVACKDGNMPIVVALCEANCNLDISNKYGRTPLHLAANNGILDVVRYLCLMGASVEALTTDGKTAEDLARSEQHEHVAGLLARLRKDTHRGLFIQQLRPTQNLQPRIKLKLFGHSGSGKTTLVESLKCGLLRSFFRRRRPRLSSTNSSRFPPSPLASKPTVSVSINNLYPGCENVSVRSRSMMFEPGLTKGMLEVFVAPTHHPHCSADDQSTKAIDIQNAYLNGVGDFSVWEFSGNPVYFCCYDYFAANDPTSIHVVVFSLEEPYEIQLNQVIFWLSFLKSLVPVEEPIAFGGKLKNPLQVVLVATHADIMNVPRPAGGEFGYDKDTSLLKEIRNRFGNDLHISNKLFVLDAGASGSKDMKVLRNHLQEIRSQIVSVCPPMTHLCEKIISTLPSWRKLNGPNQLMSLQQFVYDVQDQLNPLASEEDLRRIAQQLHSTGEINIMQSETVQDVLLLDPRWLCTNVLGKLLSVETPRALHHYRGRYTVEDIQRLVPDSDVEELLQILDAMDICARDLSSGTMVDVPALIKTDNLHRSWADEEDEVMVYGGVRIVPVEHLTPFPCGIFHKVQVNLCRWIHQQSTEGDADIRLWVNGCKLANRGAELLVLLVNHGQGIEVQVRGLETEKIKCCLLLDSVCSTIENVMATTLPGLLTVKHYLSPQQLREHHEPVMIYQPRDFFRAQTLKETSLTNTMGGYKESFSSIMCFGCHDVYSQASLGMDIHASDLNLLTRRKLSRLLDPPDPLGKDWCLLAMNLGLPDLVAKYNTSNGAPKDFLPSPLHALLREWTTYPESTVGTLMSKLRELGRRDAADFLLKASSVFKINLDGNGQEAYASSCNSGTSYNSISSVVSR

various kinases [5] = molecular target: various kinases (Homo sapiens, UniProt Q5S007, I2020T); details: LRRK2 I2020T

various kinases (Homo sapiens, UniProt P11802), sequence (P11802 whole entry): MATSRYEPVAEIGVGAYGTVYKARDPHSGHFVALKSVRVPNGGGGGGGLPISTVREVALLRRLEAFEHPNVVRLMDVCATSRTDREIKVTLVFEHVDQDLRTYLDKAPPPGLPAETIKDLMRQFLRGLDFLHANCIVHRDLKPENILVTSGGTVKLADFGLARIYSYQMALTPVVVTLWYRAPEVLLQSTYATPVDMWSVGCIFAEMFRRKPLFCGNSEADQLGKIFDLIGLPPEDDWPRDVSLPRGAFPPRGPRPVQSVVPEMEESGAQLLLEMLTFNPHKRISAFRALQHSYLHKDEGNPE
various kinases (Homo sapiens, UniProt O60285), sequence (O60285 whole entry): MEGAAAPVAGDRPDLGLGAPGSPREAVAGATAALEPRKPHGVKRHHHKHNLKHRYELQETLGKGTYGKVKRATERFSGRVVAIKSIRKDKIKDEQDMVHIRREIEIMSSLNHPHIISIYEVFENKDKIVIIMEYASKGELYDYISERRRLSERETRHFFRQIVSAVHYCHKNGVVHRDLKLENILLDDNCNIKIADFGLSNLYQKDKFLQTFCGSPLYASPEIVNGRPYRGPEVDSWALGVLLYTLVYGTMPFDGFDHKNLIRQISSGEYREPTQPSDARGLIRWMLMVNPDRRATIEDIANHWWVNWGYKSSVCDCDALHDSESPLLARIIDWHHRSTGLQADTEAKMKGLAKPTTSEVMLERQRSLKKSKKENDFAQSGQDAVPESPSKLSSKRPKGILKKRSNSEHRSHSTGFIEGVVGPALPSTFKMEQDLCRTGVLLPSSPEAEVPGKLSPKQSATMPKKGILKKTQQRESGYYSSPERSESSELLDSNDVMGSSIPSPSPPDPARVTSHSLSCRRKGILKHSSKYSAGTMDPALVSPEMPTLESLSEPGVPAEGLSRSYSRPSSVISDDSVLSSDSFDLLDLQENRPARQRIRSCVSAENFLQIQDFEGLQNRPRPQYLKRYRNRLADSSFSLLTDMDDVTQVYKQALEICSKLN

With `COc1ccc2c(c1)[C@]1(C[C@H]1c1ccc3c(/C=C/c4ccc(CN5C[C@@H](C)O[C@@H](C)C5)cc4)n[nH]c3c1)C(=O)N2` [CFI-400945] the “% Inhibition” value (various kinases [1]) was 66% and 65%, the IC50 (various kinases [1]) was 272 nM and the “% Inhibition” value (various kinases [2]; CDK4/cyclin D1) was 10% and 9%. For the same compound, the “% Inhibition” value (various kinases [2]; CDK4/cyclin D3) was 5% and 8%, the “% Inhibition” value (various kinases [3]) was 5% and 10% and the “% Inhibition” value (various kinases [4]) was 2% and 0%. For the same compound, the “% Inhibition” value (various kinases [5]) was 44% and 46%.

Reference: publication PMC5762315, “Inhibition of polo-like kinase 4 (PLK4): a new therapeutic option for rhabdoid tumors and pediatric medulloblastoma” (Oncotarget, 2017)
